Experimental data taken from PubChem BioAssay (NCI).
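Exposure lasted 48 hours, with cells grown in 96-well plates and compounds tested at five concentrations. Abbreviation: GI50, concentration required for 50% inhibition of growth. The concentration for full growth arrest is given as TGI.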

Key:
Test in all cases: inhibition of tumour cell growth, NCI panel, 48 h
[1] = test system: MOLT-4 leukemia
[2] = test system: NCI-H226 lung
[3] = test system: NCI-H23 lung
[4] = test system: NCI-H460 lung
[5] = test system: NCI-H522 lung
[6] = test system: NCI/ADR-RES ovarian
[7] = test system: OVCAR-3 ovarian
[8] = test system: OVCAR-4 ovarian
[9] = test system: OVCAR-5 ovarian
[10] = test system: OVCAR-8 ovarian
[11] = test system: PC-3 prostate
[12] = test system: RXF 393 renal
[13] = test system: SF-268 CNS
[14] = test system: SF-295 CNS
[15] = test system: SF-539 CNS
[16] = test system: SK-MEL-28 melanoma
[17] = test system: SK-MEL-5 melanoma
[18] = test system: SK-OV-3 ovarian
[19] = test system: SN12C renal
[20] = test system: SNB-19 CNS
[21] = test system: SNB-75 CNS
[22] = test system: SR leukemia
[23] = test system: SW-620 colon
[24] = test system: T-47D breast
[25] = test system: TK-10 renal
[26] = test system: U251 CNS
[27] = test system: UACC-257 melanoma
[28] = test system: UACC-62 melanoma
[29] = test system: UO-31 renal

Compound: CC[C@]12C=CCN3CC[C@@]4(c5ccc(OC)cc5N(C)[C@H]4[C@@](O)(C(=O)OC)[C@@H]1OC(=O)CCC[P+](c1ccc(OC)cc1)(c1ccc(OC)cc1)c1ccc(OC)cc1)[C@@H]32
- TGI [1]: 2.38 µM
- GI50 [2]: 1.43 µM
- TGI [2]: 3.87 µM
- GI50 [3]: 0.472 µM
- TGI [3]: 1.66 µM
- GI50 [4]: 0.666 µM
- TGI [4]: 2.36 µM
- GI50 [5]: 0.334 µM
- TGI [5]: 1.18 µM
- GI50 [6]: 18.1 µM
- TGI [6]: 49.7 µM
- GI50 [7]: 0.422 µM
- TGI [7]: 1.57 µM
- GI50 [8]: 0.537 µM
- TGI [8]: 3.44 µM
- GI50 [9]: 0.686 µM
- TGI [9]: 2.21 µM
- GI50 [10]: 1.42 µM
- TGI [10]: 3.87 µM
- GI50 [11]: 0.414 µM
- TGI [11]: 2.15 µM
- GI50 [12]: 0.362 µM
- TGI [12]: 1.34 µM
- GI50 [13]: 0.318 µM
- TGI [13]: 1.46 µM
- GI50 [14]: 1.25 µM
- TGI [14]: 3.03 µM
- GI50 [15]: 0.622 µM
- TGI [15]: 1.67 µM
- GI50 [16]: 0.477 µM
- TGI [16]: 1.64 µM
- GI50 [17]: 0.722 µM
- TGI [17]: 1.87 µM
- GI50 [18]: 0.595 µM
- TGI [18]: 1.68 µM
- GI50 [19]: 0.458 µM
- TGI [19]: 1.51 µM
- GI50 [20]: 0.341 µM
- TGI [20]: 1.35 µM
- GI50 [21]: 0.178 µM
- TGI [21]: 0.735 µM
- GI50 [22]: 0.397 µM
- TGI [22]: 1.78 µM
- GI50 [23]: 0.557 µM
- TGI [23]: 2.05 µM
- GI50 [24]: 0.309 µM
- TGI [24]: 1.6 µM
- GI50 [25]: 1.4 µM
- TGI [25]: 2.87 µM
- GI50 [26]: 0.36 µM
- TGI [26]: 1.37 µM
- GI50 [27]: 0.489 µM
- TGI [27]: 1.76 µM
- GI50 [28]: 0.396 µM
- TGI [28]: 1.17 µM
- GI50 [29]: 3.09 µM
- TGI [29]: 15.5 µM
